Like-named read-outs stand apart in the source and are kept apart here.
What was measured:
[1] = Stability under basic conditions (Triton B, UV-vis); format: physicochemical; conditions: 1 equivalent Triton B in 1,4-dioxane and MeOH, 1.1×10^−3 M, 25°C
Method: A 2.2×10^−2 M solution of Triton B in MeOH was added to a 2.2×10^−2 M solution of each sample in 1,4-dioxane. Then, the mixture was diluted with 1,4-dioxane to a concentration of 1.1×10^−3 M. Then, the stability of each compound was monitored by UV-vis spectroscopy. UV-vis spectra were measured at 25°C on a UV-vis spectrophotometer (JASCO V-650, Tokyo, Japan). For comparison, UV-vis spectra of 1.1×10^−3 M solution of C18:1-acyl plumbagin (2f), and C18:1-acyl juglone (5f) in 1,4-dioxane and MeOH (19/1, v/v) were measured.

mammalian pols = experiment: DNA polymerase activity inhibition, summary over the panel; format: biochemical
Excerpt: Pol α was purified from calf thymus by immunoaffinity column chromatography as described by Tamai et al.. Recombinant rat pol β was purified from Escherichia coli JMpβ5 as described by Date et al.. The human pol γ catalytic gene was cloned into pFastBac. Histidine-tagged enzyme was expressed using the BACTO-BAC HT Baculovirus Expression System according to the manufacturer's instructions (Life Technologies, Frederick, MD, USA) and purified using ProBound resin (Invitrogen Japan, Tokyo Japan). Human pols δ and ε were purified by nuclear fractionation of human peripheral blood cancer cells (Molt-4) using the second subunit of pol δ and ε-conjugated affinity column chromatography, respectively. A truncated form of human pol η (residues 1–511) tagged with His6 at its C-terminal was expressed in E. coli cells and purified as described by Kusumoto et al.. A recombinant mouse pol ι tagged with His6 at its C-terminal was expressed and purified by Ni–NTA column chromatography. A truncated form of pol κ (residues 1–560) with 6× His-tags attached at the C-terminus was overexpressed in E. coli and purified as described by Ohashi et al.. Recombinant human His-pol λ was overexpressed and purified according to a method described by Shimazaki et al.. Recombinant human His-pol μ was overexpressed in E. coli BL21 and purified using Glutathione Sepharose 4B (GE Healthcare Bio-Science Corp., Piscataway, NJ, USA) column chromatography according to the method for pol λ preparation by Shimazaki et al.. Pol α from a higher plant, cauliflower, was purified from the inflorescence structure according to the methods outlined by Sakaguchi et al.. Recombinant rice (Oryza sativa L. cv. Nipponbare) pol λ tagged with His6 at the C-terminus was expressed in E. coli and purified as described by Uchiyama et al.. Calf TdT, Taq pol, T4 pol, T7 RNA polymerase, and T4 polynucleotide kinase were purchased from Takara Bio Inc. (Kyoto, Japan). The Klenow fragment of pol I from E. coli was purchased from Worthington Biochemical Corp. (Freehold, NJ, USA). Bovine pancreas deoxyribonuclease I was obtained from Stratagene Cloning Systems (La Jolla, CA, USA).
The reaction mixtures for calf pol α, rat pol β, plant pol α, and prokaryotic pols have been described previously, [35]; those for pol γ as well as pols δ and ε were previously described by Umeda et al. and Ogawa et al., respectively. Those for pols η, ι, and κ were the same as for pol α, and those for pols λ and μ were the same as for pol β. For the pol reactions, poly(dA)/oligo(dT)18 (A/T, 2/1) and dTTP were used as the DNA template-primer substrate and nucleotide (dNTP; 2′-deoxynucleoside-5′-triphosphate) substrate, respectively. For the TdT reactions, oligo(dT)18 (3′-OH) and dTTP were used as the DNA primer substrate and nucleotide substrate, respectively.
The chemically synthesized 5-O-acyl plumbagins (2a–j) were dissolved in distilled dimethyl sulfoxide (DMSO) to various concentrations and sonicated for 30 s. Subsequently, 4 µL aliquots were mixed with 16 µL of each enzyme (0.05 units) in 50 mM Tris-HCl at pH 7.5, containing 1 mM dithiothreitol, 50% glycerol (by vol), and 0.1 mM ethylenediaminetetraacetic acid and held at 0°C for 10 min. These inhibitor-enzyme mixtures in 8 µL volumes were next added to 16 µL of enzyme standard reaction mixture and incubated at 37°C for 60 min, except for Taq pol, which was incubated at 74°C for 60 min. Activity without inhibitor was considered 100%, and the relative activity was determined for each inhibitor concentration. One unit of pol activity was defined as the amount of each enzyme that catalyzed the incorporation of 1 nmol dTTP into synthetic DNA template primers in 60 min, at 37°C, and under standard reaction conditions, [35].

In the case of `CCCCCCCC/C=C\CCCCCCCC(=O)Oc1cccc2c1C(=O)C=C(C)C2=O` [2f, 5-O-oleoyl-2-methyl-1,4-naphthoquinone], the “stability under basic conditions (UV spectra)” value [1] is reported as “Almost no changes in UV spectra”, the “inhibitory effect on A and B families of pols, fold stronger than on X and Y families” value (mammalian pols) is reported as 1.5- to 2 fold and the IC50 (mammalian pols; B family of pols, read-out: 50% inhibition dose) is reported as 4.8 to 5.3 µM. The IC50 (mammalian pols; X family of pols, read-out: 50% inhibition dose) was 9.2 to 10.6 µM, the IC50 (mammalian pols; Y family of pols, read-out: 50% inhibition dose) was 7.6 to 8.2 µM and the IC50 (mammalian pols; all of the mammalian pols (11 species), read-out: IC50 values) was 4.5 to 10.6 µM. For the same compound, the “influence of excess poly(rC) and BSA on pol inhibition” value (mammalian pols; data not shown) was “little or no influence” and the “pol inhibitory activity, fold more potent than aphidicolin” value (mammalian pols; pols α, δ and ε, versus aphidicolin IC50 of ref 45) was > 2 fold.

— article PMC3919815, “Anti-Tumor Effects of Novel 5-O-Acyl Plumbagins Based on the Inhibition of Mammalian DNA Replicative Polymerase Activity” (PLoS ONE, 2014)
